The values that follow come from patent US5190870A, “Method for oxidizing hydrocarbons with a hydroxylase from a methane monooxygenase” (Amoco Corporation, priority 1990, dated 1993).

As usually defined, the Km is the substrate concentration at which the rate is half of its maximum.

For data set [1], the target named is T1, Methylosinus trichosporium OB3b soluble methane monooxygenase, complete system (hydroxylase, component B, reductase) (Methylosinus trichosporium, UniProt P27353).
T1 sequence (P27353 1-526): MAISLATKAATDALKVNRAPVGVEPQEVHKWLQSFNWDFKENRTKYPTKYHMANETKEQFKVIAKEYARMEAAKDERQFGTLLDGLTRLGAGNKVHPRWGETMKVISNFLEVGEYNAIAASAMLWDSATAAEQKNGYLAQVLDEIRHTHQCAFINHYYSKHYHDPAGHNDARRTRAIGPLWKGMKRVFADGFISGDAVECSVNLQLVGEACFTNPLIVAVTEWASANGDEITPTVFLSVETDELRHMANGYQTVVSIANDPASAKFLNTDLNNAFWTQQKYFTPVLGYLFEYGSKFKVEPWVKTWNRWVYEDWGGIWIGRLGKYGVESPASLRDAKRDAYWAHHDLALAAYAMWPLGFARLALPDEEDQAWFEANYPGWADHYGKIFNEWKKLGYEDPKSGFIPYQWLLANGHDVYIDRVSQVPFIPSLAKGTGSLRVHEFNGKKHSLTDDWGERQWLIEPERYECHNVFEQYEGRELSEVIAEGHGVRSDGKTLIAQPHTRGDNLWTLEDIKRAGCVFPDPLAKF
T1 sequence (P27354 1-394 partner): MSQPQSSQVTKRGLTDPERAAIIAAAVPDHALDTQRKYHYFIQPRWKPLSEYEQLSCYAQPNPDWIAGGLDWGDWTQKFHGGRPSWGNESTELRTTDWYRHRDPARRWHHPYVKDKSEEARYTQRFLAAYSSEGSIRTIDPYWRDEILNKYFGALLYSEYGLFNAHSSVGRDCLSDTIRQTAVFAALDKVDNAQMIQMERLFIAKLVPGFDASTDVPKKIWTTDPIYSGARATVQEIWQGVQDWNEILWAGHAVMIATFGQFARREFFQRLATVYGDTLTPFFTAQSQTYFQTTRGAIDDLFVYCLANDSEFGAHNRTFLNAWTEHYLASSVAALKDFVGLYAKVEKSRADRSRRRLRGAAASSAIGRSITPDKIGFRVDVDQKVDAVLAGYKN
T1 sequence (P27355 1-169 partner): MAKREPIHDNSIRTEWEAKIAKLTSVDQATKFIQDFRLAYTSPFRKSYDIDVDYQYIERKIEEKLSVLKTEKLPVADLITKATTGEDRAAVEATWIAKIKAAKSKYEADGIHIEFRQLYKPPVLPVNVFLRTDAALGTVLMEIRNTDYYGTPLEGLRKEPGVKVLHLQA
Nature of the data set: Polarographic / gas chromatographic assay of the complete (reconstituted) methane monooxygenase. The conditions noted are these: catalytic cycles per second per molecule.

Substrate in data set [2]: c1ccoc1
Nature of the data set: purified protein, by the assay type. The conditions noted are these: other: complete methane monooxygenase, polarographic assay; pH 7.0; 30.0 °C.

Take `c1ccoc1` [furan]: the “turnover number relative to the hydroxylase” value in data set [1] is listed as 7.6 S^-1.

B1: Methylosinus trichosporium OB3b soluble methane monooxygenase, complete system (hydroxylase, component B, reductase) (Methylosinus trichosporium) (protein)
chain: T1 sequence (P27353 1-526)
On to B1, for which the Km in data set [2] came out at 20 µM.
